Key:
Assay type in all cases: biochemical
Irak4 = molecular target: T1, Irak4 (Homo sapiens, UniProt Q9NWZ3); test: Z'-Lyte FRET kinase assay (Invitrogen), Irak4; settings: read-out: IC50, activity toward kinase Irak4
T1 construct: purchased Invitrogen (assay run by Invitrogen)
T1 sequence (Q9NWZ3 1-460): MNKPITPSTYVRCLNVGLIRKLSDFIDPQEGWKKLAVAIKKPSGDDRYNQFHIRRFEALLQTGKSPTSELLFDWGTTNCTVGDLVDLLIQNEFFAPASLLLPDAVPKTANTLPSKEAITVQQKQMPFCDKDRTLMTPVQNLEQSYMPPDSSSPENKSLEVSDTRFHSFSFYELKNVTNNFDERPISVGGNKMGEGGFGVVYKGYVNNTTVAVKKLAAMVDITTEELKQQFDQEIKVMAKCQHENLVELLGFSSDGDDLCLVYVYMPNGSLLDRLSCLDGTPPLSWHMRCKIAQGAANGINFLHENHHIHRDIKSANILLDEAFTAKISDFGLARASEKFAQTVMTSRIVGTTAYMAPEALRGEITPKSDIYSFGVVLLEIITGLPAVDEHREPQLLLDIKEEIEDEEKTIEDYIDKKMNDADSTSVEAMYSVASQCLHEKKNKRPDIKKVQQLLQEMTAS
Excerpt: (§1) The effect of potential modulators of kinase activity can be measured in a variety of different assays known in the art. For example, direct radiometric, indirect FRET or AlphaScreen assays may be used to assess the level of phosphorylation of a substrate in the presence of test compounds in order to determine the inhibitory affect of the compound on the kinase. Invitrogen (Carlsbad, Calif.) uses a FRET based assay for Btk, EGFR, EphB2, Flt3, lrak4, Kdr, MAP2K1, MAPKAPK2, PDGFRB, PKC theta, Stk6 and Yes. For these assays, compounds of the invention were screened by Invitrogen using Z′-Lyte™ kinase assay.
(§2) Briefly, the Invitrogen kinase assay involves use of a specific peptide substrate optimized for each kinase, containing a fluorophore at each end that make up the FRET pair. The peptide sensitivity to proteolytic cleavage depends on phosphorylation of the peptide. Non-phosphorylated peptide is cleaved by a protease while peptide phosphorylated by the kinase is not cleaved. Cleavage of the peptide disrupts the FRET between the donor (coumarin) and acceptor (fluorescein) fluorophores, resulting in an increase in the ratio of donor emission to acceptor emission. The emission ratio of coumarin to fluorescein is used to assess the reaction progress. The extent of phosphorylation is determined from the emission ratio, which is low when the kinase is active (phosphorylated peptide is not cleaved, FRET pair connected) or higher for inhibited kinase (non-phosphorylated peptide is cleaved, FRET pair separated). Thus, the assay involves a kinase reaction in the presence of varying concentrations of a given compound, a development reaction with site specific protease, and detection of the fluorescent emission ratio of coumarin and fluorscein. […] Reaction conditions for each kinase are determined to provide optimal reaction times, incubation temperature, kinase and ATP concentrations. Test samples are made up in 1× kinase buffer (50 mM HEPES pH 7.5, 50 mM MgCl2, 5 mM EGTA, 0.05% BRIJ-35) and compound at desired concentration prepared in DMSO such that the final DMSO is 1%. […] Typically, assay plates are prepared to 10 μl final volume per sample, adding 2.5 μl of compound at 4× the desired concentration in 4% DMSO (serial dilution of compound provides concentration curve), 5 μl of the desired kinase mixed with Z′-LYTE™ peptide substrate (2× in 2× kinase buffer, final peptide at 2 μM), and 2.5 μl of 4×ATP solution. All kinase except for MAP2K1 were at 10 μM ATP in the kinase reaction, while MAP2K1 was at 100 μM. Samples are mixed and the kinase reaction is incubated 1 hour at room temperature, after which 5 μl of development solution is added and mixed. After incubation for another 1 hour at room temperature, 5 μl of stop reagent is added to each sample and mixed. The fluorescence signals are measured to determine the emission ratio.

Kdr = molecular target: T2, Kdr (Homo sapiens, UniProt P35968); test: Z'-Lyte FRET kinase assay (Invitrogen), Kdr; settings: read-out: IC50, activity toward kinase Kdr
T2 construct: purchased Invitrogen (assay run by Invitrogen)

Stk6 = molecular target: T3, Stk6 (Homo sapiens, UniProt O14965); test: Z'-Lyte FRET kinase assay (Invitrogen), Stk6; settings: read-out: IC50, activity toward kinase Stk6
T3 construct: purchased Invitrogen (Carlsbad, Calif.), screening service
T3 sequence (O14965 1-403): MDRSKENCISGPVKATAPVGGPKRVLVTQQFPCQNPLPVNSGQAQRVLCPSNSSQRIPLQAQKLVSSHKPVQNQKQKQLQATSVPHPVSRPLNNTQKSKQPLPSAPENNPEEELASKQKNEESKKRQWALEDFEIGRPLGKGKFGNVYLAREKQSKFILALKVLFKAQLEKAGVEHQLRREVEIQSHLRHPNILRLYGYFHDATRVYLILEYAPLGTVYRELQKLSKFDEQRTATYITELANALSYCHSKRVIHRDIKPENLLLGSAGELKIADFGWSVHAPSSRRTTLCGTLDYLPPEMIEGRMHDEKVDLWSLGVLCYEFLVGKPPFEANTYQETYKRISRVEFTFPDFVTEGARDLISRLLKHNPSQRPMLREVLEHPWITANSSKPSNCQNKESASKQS

MAP2K1 = molecular target: T4, MAP2K1 (Homo sapiens, UniProt Q02750); test: Z'-Lyte FRET kinase assay (Invitrogen), MAP2K1; settings: read-out: IC50, activity toward kinase MAP2K1
T4 construct: purchased Invitrogen (assay run by Invitrogen)

IKK beta = molecular target: T5, IKK beta (Homo sapiens, UniProt O14920); test: AlphaScreen kinase assay, IKK beta; settings: read-out: IC50, activity toward kinase IKK beta
T5 sequence (O14920 1-756): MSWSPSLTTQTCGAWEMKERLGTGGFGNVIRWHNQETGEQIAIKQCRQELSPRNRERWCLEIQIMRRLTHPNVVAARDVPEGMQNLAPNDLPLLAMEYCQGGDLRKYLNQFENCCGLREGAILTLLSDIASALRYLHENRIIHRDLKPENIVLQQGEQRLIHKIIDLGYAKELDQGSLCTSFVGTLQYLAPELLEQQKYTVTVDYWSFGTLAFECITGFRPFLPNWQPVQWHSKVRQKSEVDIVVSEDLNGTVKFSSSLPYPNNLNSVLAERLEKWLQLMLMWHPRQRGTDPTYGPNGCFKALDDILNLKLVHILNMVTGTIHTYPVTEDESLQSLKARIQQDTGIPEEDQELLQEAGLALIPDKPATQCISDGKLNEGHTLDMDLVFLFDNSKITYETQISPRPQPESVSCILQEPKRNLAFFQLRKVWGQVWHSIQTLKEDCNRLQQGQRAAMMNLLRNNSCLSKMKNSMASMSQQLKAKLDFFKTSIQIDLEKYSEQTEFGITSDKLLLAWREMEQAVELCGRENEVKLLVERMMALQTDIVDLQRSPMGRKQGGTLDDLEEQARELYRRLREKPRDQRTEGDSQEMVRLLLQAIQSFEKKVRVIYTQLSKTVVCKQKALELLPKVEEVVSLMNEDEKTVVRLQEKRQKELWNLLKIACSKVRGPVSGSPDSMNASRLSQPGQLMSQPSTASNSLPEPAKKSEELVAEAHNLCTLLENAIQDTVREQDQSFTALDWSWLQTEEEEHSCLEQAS

MAP4K4 = MAP4K4 (Homo sapiens, UniProt O95819); test: AlphaScreen kinase assay, MAP4K4; settings: read-out: IC50, activity toward kinase MAP4K4
Met = molecular target: T6, Met (Homo sapiens, UniProt P08581); test: AlphaScreen kinase assay, Met; settings: read-out: IC50, activity toward kinase Met
T6 construct: P1818.pETN6 BI-PTP MET G1056-G1364-X WT; His6 (N); made in house; host or cells: E. coli (PTP1B co-expressed)
Procedure, shortened: (§3)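 Kinase activity was measured as phosphorylation of a biotinylated peptide, detected with streptavidin donor and phospho-antibody acceptor beads. Compounds, from 20 mM DMSO stocks, were tested at eight concentrations in 1:3 serial dilution.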

Itk = molecular target: T7, Itk (Homo sapiens, UniProt Q08881); test: AlphaScreen kinase assay, Itk; settings: read-out: IC50, activity toward kinase Itk
T7 sequence (Q08881 1-620): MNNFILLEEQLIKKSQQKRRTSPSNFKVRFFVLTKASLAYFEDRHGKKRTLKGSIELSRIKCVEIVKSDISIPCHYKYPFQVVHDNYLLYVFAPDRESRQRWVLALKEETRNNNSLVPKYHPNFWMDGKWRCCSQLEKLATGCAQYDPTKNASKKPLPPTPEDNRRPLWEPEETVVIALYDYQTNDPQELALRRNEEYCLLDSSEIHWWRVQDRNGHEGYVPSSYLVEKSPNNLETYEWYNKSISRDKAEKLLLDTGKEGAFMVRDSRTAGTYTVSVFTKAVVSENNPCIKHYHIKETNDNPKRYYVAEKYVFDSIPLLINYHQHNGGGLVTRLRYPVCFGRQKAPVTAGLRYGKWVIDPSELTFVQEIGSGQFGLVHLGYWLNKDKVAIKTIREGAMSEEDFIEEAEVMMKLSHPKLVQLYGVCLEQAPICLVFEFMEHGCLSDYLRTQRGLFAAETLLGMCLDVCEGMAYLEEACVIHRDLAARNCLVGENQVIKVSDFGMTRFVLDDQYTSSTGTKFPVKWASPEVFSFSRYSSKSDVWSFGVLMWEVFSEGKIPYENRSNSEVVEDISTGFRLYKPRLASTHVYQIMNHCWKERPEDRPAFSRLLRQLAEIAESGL
Procedure, shortened: as §3

Plk1 = Plk1 (Homo sapiens, UniProt P53350); test: AlphaScreen kinase assay, Plk1; settings: read-out: IC50, activity toward kinase Plk1
Procedure, shortened: as §3

Erk2 = molecular target: T8, Erk2 (Homo sapiens, UniProt P28482); test: AlphaScreen kinase assay, Erk2; settings: read-out: IC50, activity toward kinase Erk2
T8 construct: P4227.pET15S ERK2/MEK1DD; His6 with thrombin site (N); made in house
Excerpt: AlphaScreen assay was used to screen additional kinases. The assay is similarly dependent on the phosphorylation of a peptide substrate. In this assay, an antibody that recognizes phosphorylated substrate is bound to an acceptor bead. The peptide substrate is attached to biotin, which binds to a donor head that contains streptavidin. Thus phosphorylated substrate is bound by antibody and streptavidin, bringing the donor and acceptor heads into close proximity when kinase is not inhibited. The donor produces singlet oxygen which results in emission from the acceptor when they are in close proximity. Conversely, when kinase is inhibited, the donor and acceptor beads are not associated and the emission from the acceptor is reduced.
AlphaScreen assays were done using compounds dissolved in DMSO to a concentration of 20 mM. The compounds were diluted accordingly to the desired final concentrations in each sample well, using 1:3 serial dilution for a total of 8 concentration points.

Yes = molecular target: T9, Yes (Homo sapiens, UniProt P07947); test: Z'-Lyte FRET kinase assay (Invitrogen), Yes; settings: read-out: IC50, activity toward kinase Yes
T9 construct: purchased Invitrogen (Carlsbad, Calif.), screening service
Procedure, shortened: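 Inhibition was inferred from protease cleavage of non-phosphorylated peptide, measured as a coumarin/fluorescein ratio. Kinase reactions used 10 μM ATP for 1 h at room temperature.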

Kit = molecular target: T10, Kit (Homo sapiens, UniProt P10721); test: AlphaScreen kinase assay, Kit; settings: read-out: IC50, activity toward kinase Kit
T10 construct: P1332.N6 BI PTP KIT M552-K948-X COD; His6 (N); made in house; host or cells: E. coli (PTP1B co-expressed)

PKC theta = molecular target: T11, PKC theta (Homo sapiens, UniProt Q04759); test: Z'-Lyte FRET kinase assay (Invitrogen), PKC theta; settings: read-out: IC50, activity toward kinase PKC theta
T11 construct: purchased Invitrogen (Carlsbad, Calif.), screening service
Excerpt: as §1, §2

Jnk3 = molecular target: T12, Jnk3 (Homo sapiens, UniProt P53779); test: AlphaScreen kinase assay, Jnk3; settings: read-out: IC50, activity toward kinase Jnk3
T12 construct: purchased Upstate Biotechnology

Btk = molecular target: T13, Btk (Homo sapiens, UniProt Q06187); test: Z'-Lyte FRET kinase assay (Invitrogen), Btk; settings: read-out: IC50, activity toward kinase Btk
T13 construct: purchased Invitrogen (assay run by Invitrogen)

IGF1R = IGF1R (Homo sapiens, UniProt P08069); test: AlphaScreen kinase assay, IGF1R; settings: read-out: IC50, activity toward kinase IGF1R
Flt1 = molecular target: T14, Flt1 (Homo sapiens, UniProt P17948); test: AlphaScreen kinase assay, Flt1; settings: read-out: IC50, activity toward kinase Flt1
T14 construct: P1826.pETN6 BI-PTP FLT1 M799-D1165-X WT; His6 (N); made in house; host or cells: E. coli (PTP1B co-expressed)
T14 sequence (P17948 with tags, fused parts or gaps): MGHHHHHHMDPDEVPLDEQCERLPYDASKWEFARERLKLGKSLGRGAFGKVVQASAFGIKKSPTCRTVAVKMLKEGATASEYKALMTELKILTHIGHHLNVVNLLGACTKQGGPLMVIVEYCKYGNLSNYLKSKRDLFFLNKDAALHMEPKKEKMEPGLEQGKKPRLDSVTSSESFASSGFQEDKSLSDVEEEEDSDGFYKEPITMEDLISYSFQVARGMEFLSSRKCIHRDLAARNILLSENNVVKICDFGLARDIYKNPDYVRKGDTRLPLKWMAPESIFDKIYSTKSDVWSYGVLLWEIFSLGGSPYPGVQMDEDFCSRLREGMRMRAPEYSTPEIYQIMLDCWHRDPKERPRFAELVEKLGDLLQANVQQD

Measured: IC50

T4 sequence (Q02750 whole entry): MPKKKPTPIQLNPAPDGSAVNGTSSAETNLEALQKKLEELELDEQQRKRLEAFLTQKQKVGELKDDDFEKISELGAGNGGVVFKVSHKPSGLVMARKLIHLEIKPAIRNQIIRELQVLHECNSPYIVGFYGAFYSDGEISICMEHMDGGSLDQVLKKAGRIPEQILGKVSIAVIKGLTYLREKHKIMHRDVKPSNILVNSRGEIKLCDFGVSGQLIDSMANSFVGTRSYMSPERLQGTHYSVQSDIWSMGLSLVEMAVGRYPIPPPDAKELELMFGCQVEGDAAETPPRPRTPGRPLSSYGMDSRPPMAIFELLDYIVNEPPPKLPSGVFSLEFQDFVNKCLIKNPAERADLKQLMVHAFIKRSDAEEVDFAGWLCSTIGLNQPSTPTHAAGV
T2 sequence (P35968 20-1356): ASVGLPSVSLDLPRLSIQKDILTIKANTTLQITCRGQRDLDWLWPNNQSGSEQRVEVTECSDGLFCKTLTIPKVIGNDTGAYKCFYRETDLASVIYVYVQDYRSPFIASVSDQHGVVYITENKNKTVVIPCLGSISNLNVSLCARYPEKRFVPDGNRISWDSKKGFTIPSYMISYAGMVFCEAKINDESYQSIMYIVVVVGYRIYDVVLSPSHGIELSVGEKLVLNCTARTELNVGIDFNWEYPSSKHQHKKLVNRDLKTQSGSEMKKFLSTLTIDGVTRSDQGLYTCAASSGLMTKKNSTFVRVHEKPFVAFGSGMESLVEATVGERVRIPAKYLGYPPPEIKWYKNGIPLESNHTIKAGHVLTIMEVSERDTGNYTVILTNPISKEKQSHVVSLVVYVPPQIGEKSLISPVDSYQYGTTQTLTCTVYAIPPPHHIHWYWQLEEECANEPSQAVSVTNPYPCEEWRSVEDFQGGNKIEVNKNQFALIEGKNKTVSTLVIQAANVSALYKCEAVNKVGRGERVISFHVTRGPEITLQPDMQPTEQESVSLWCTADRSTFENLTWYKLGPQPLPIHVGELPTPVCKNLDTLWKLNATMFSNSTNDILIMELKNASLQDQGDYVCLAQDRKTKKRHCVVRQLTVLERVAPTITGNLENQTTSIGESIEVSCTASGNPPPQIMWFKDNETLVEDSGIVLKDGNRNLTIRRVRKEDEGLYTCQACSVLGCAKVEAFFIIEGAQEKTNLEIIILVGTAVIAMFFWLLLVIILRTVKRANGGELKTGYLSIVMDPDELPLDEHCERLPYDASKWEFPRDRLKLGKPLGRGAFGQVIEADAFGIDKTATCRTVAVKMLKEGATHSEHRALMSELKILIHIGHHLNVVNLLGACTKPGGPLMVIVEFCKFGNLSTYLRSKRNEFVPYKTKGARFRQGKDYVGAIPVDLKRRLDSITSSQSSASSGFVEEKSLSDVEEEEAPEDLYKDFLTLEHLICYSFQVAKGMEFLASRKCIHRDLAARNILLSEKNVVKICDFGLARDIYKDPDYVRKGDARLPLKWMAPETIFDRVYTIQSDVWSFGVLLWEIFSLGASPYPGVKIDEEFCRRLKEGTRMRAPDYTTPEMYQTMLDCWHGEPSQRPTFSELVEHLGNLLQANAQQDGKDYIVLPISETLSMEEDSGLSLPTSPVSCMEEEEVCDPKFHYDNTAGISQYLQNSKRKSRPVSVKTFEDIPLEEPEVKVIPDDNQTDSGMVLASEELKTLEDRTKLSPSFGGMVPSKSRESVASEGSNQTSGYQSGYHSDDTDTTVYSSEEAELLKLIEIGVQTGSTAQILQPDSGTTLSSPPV
T13 sequence (Q06187 whole entry): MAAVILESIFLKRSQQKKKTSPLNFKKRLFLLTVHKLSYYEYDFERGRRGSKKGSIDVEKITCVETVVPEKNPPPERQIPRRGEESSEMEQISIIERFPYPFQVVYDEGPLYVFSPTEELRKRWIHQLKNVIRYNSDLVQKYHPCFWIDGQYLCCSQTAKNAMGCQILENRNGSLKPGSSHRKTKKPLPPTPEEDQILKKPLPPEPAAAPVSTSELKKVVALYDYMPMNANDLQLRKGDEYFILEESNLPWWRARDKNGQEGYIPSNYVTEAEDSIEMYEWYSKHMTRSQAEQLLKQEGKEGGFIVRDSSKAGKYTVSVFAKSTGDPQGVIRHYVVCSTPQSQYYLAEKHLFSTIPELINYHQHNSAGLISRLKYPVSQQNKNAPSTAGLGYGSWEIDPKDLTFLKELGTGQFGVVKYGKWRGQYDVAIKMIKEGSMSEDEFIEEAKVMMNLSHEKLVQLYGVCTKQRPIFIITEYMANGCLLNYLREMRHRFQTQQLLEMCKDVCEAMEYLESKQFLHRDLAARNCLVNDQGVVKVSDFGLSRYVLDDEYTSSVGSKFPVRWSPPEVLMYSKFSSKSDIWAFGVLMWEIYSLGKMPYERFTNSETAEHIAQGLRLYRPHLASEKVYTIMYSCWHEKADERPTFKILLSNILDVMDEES
T8 sequence (P28482 with tags, fused parts or gaps): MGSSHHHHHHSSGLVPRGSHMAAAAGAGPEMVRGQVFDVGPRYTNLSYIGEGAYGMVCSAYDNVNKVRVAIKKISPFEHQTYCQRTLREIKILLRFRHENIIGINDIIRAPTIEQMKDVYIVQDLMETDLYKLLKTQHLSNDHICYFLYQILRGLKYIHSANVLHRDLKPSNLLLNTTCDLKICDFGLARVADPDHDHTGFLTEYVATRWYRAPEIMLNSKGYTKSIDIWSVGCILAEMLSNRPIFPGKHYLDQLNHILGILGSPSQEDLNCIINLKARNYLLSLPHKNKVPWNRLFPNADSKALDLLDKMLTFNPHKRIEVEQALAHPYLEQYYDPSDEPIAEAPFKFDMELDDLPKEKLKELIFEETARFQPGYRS
Chain of MAP4K4 (O95819 whole entry): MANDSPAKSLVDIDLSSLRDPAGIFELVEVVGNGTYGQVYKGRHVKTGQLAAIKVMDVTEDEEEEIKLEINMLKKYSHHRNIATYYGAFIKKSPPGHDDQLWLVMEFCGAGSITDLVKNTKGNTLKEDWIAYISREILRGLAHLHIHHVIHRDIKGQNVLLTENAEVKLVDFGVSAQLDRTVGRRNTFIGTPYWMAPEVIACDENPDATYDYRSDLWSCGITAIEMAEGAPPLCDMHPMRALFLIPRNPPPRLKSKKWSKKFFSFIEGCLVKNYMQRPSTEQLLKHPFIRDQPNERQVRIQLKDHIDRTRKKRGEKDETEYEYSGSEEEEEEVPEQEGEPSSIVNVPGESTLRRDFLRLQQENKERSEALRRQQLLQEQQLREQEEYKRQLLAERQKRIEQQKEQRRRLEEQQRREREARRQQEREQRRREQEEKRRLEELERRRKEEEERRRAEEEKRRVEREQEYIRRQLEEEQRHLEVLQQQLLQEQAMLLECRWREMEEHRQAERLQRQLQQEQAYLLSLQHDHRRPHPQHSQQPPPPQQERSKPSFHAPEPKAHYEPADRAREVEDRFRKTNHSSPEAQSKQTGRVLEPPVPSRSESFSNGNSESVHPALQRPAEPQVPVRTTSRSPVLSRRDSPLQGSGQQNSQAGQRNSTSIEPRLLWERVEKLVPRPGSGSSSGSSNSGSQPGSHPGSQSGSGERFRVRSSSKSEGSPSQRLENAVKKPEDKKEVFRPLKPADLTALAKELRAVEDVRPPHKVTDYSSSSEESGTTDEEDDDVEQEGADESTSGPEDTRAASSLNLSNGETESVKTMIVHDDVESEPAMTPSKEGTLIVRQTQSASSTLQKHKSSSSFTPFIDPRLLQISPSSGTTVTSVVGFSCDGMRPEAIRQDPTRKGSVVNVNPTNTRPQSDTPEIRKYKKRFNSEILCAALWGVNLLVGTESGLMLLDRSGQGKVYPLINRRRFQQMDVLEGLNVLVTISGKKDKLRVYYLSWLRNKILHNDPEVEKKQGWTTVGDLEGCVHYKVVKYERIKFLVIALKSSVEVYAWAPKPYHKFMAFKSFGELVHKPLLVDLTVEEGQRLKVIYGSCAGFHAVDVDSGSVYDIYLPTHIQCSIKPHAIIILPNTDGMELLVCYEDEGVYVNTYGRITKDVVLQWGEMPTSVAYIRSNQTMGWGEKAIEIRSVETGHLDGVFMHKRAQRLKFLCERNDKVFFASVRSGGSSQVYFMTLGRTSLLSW
T6 sequence (P08581 with tags, fused parts or gaps): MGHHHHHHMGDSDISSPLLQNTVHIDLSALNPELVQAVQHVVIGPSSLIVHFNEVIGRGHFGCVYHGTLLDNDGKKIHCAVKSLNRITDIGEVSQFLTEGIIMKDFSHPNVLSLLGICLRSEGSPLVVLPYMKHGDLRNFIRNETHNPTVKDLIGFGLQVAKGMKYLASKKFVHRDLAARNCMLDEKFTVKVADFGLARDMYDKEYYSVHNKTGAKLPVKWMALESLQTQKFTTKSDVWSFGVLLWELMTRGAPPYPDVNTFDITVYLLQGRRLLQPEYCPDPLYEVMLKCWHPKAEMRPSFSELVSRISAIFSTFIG
T9 sequence (P07947 whole entry): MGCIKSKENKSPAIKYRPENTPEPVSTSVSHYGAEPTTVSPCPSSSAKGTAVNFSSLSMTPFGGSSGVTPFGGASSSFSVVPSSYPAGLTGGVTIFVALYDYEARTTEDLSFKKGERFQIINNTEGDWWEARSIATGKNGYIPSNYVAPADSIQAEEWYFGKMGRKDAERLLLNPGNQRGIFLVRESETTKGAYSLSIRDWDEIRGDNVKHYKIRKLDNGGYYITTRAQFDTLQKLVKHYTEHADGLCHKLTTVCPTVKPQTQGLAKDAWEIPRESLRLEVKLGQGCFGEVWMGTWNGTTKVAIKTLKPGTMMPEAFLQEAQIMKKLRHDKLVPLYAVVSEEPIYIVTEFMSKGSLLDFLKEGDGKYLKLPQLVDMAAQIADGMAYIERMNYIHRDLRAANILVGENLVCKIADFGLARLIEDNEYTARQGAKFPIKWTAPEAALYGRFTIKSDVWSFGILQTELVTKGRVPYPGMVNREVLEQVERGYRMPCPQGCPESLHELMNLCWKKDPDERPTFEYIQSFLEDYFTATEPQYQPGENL

OCc1cccc(-c2c[nH]c3ncccc23)c1 [Compound P-0087]
≤ 10 µM: Irak4 | Kdr | Stk6 | MAP2K1 | IKK beta

c1cnc2[nH]cc(-c3ccncc3)c2c1 [Compound P-0130]
≤ 10 µM: Irak4 | Kdr | MAP4K4

CC(=O)Nc1cccc(-c2c[nH]c3ncccc23)c1 [Compound P-0076]
≤ 10 µM: Irak4 | Met | Kdr | Stk6 | MAP2K1

Cc1cc(C)cc(-c2ccnc3[nH]cc(C=O)c23)c1 [Compound P-0031]
not listed: Irak4 | IKK beta | MAP4K4 | Met | Flt1
≤ 10 µM: all other assays above

Nc1cccc(-c2c[nH]c3ncccc23)c1 [Compound P-0091]
≤ 10 µM: Irak4 | Kdr | Stk6 | Flt1

Reference: patent US8415469B2, “Compounds and methods for kinase modulation, and indications therefor” (Plexxikon Inc., priority 2005, dated 2013)
